Experimental data taken from patent US9072791B2, “Photostabilized pharmaceutical compositions” (DENKI KAGAKU KOGYO KABUSHIKI KAISHA, priority 2008, dated 2015).

What was measured:
Assay type in all cases: physicochemical
[1] = Fluorescing of the HA-MTX conjugate upon irradiation with light at specified wavelengths (Example 1); set-up: key: rated “+” when strong emission was observed after the irradiation; rated “−” when the emission after the irradiation was not different from the emission before the irradiation
Experimental: The HA-MTX conjugate obtained in Production 1 was dissolved in 0.9% NaCl containing 2 mM phosphate buffer (pH 7.3) to give a concentration of 9.9 mg/ml in terms of HA and the solution was irradiated with light at varying wavelengths (260 nm, 310 nm, 360 nm, and 405 nm) using a fluorescence detector for liquid chromatography (product of Hitachi, Ltd.; fluorescence detector of model F1050) to observe the gelation and fluorescing of the conjugate. To evaluate the gelation, the surface of the sample solution was pierced with a spatula and visually checked for the formation of an interface as the result of gelation. To observe fluorescing, the sample was irradiated with exciting light and the state of light emission from the sample was observed by direct visual checking before and after the irradiation; the result was rated “+” when strong emission was observed after the irradiation but rated “−” when the emission after the irradiation was not different from the emission before the irradiation.

[2] = Effect of photostabilizers on the excitation spectra of the HA-MTX conjugate (Example 4(1)); details: fluorescence at 458 nm
Experimental: Various photostabilizers (methyl p-hydroxybenzoate (methyl paraben), salicylic acid Na, thiosulfuric acid Na, and N-acetyltryptophan) were each dissolved in a preparation buffer (0.9% NaCl containing 2 mM phosphate buffer (pH 7.4)) to give a concentration of 9 mg/ml (but 0.9 mg/ml in the case of methyl paraben) and thereafter filtered aseptically by passage through a 0.2-μm filter (Millex GV). […] The test samples and the control were irradiated with light at 300-480 nm and the intensity of fluorescence at 458 nm was measured.

[3] = Photostability test in glass vials not shielded from light: gelation, molecular weight, percent conjugation of MTX (Example 4(2)); details: not shielded from light; for Molecular weight (×10^4), irradiation time 0 h / Molecular weight (×10^4), irradiation time 25 h / Molecular weight (×10^4), irradiation time 50 h / Molecular weight (×10^4), irradiation time 100 h / Molecular weight (×10^4), irradiation time 150 h / Molecular weight (×10^4), irradiation time 300 h / Percent Conjugation (%) of MTX, irradiation time 0 h / Percent Conjugation (%) of MTX, irradiation time 25 h / Percent Conjugation (%) of MTX, irradiation time 50 h / Percent Conjugation (%) of MTX, irradiation time 100 h / Percent Conjugation (%) of MTX, irradiation time 150 h / Percent Conjugation (%) of MTX, irradiation time 300 h: 4000 Lux, 25° C.
Experimental: Various photostabilizers (methyl p-hydroxybenzoate (methyl paraben), salicylic acid Na, thiosulfuric acid Na, thioglycolic acid Na, N-acetyltryptophan, and tryptophan) were each dissolved in a preparation buffer (0.9% NaCl containing 2 mM phosphate buffer, pH 7.4) to give a concentration of 1 or 10 mg/ml and thereafter filtered aseptically by passage through a 0.2-μm filter (Millex GV). A powder of the HA-MTX conjugate prepared in accordance with Production 1 was metered aseptically and dissolved in the filtered, photostabilizer-containing preparation buffer to give a concentration of 10 mg/mL; the thus prepared solutions were used as test samples. To prepare a control solution, the HA-MTX conjugate was dissolved in a photostabilizer-free preparation buffer at a concentration of 10 mg/mL.
The thus prepared solutions were put into glass vials not shielded from light and then irradiated with light.
The irradiation was so performed as to give an illuminance of 4000 Lux at 25° C. from a fluorescent lamp for use in a photostability test (TOSHIBA FL20S•D-EDL-D65) by means of a photostability tester (ETAC LABONIC LA110). After the lapse of specified periods (0 h, 25 h, 50 h, 100 h, 150 h, and 300 h) of irradiation, samples were taken and not only checked for gelation but also measured for the molecular weight of the HA-MTX conjugate and the percent conjugation of MTX (in the HA-MTX conjugate).
To evaluate the degree of gelation, the surface of each sample solution was pierced with a spatula and visually checked for the formation of an interface as the result of gelation. […] The apparatus used in gel filtration chromatography was equipped with OHpackSB-806HQ (Shodex) as a column, RI-71 (Shodex) as an […], and 875-UV (JASCO, detection wavelength: 304 nm) as a UV detector and analysis was conducted under the following conditions. Eluent: 50 mM sodium phosphate aqueous solution (pH 6.0); elution rate: 0.6 mL/min; column temperature: 40° C. By the above-described gel filtration chromatography, the elution times of the conjugate of interest were determined and the molecular weight of the same conjugate was determined from the relationship between the elution times and molecular weights of standard substances. As the standard substances, hyaluronic acid samples were prepared in varying molecular weights and their accurate values were calculated by the limiting viscosity method before it was used.

[4] = Photostability test with additional light-shielding film LUMICOOL 1905 (Example 6); details: vial wrapped with LUMICOOL 1905;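 note: molecular weight and drug conjugation percentage of the test conjugate, both determined by the method given for the first production procedure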

Question: Which Fluorescence ([1]; irradiation at 260 nm) does the source give for “MTX-α-PhePhe-NHC2H4NH-HA [HA-MTX conjugate]” here?
Answer: Its Fluorescence is “−”.

Question: What about the Fluorescence ([1]; irradiation at 310 nm) of the same compound?
Answer: The Fluorescence was “−”.

Question: And the Fluorescence ([1]; irradiation at 360 nm)?
Answer: The Fluorescence was “+”.

Question: What about the Fluorescence ([1]; irradiation at 405 nm) of the same compound?
Answer: Its Fluorescence is “+”.

Question: What about the main excitation wavelengths ([2]; control solution 1 mg/ml, no photostabilizer) of the same compound?
Answer: Its main excitation wavelengths is 320-430 nm.

Question: What about the “excitation maximum wavelength (Ex λmax)” value [2] of the same compound?
Answer: The value was 380 nm.

Question: Which “suppressing drops in the molecular weight and percent conjugation” value ([3]; added at 10 mg/ml) does the source give for `O=C([O-])CS.[Na+]` [Na thioglycolate, sodium thioglycolate] here?
Answer: The value was “considerably effective in suppressing drops in the molecular weight and percent conjugation even when the time of irradiation exceeded 100 hours”.

Question: What about the “Molecular weight (×10^4), irradiation time 0 h” value ([3]; additive 1 mg/ml) of the same compound?
Answer: The value was 163 ×10^4.

Question: And the “Molecular weight (×10^4), irradiation time 25 h” value ([3]; additive 1 mg/ml)?
Answer: Its value is 136 ×10^4.

Question: What about the “Molecular weight (×10^4), irradiation time 50 h” value ([3]; additive 1 mg/ml) of the same compound?
Answer: Its value is 97 ×10^4.

Question: What about the “Molecular weight (×10^4), irradiation time 100 h” value ([3]; additive 1 mg/ml) of the same compound?
Answer: The value was 8 ×10^4.

Question: What about the “Molecular weight (×10^4), irradiation time 150 h” value ([3]; additive 1 mg/ml) of the same compound?
Answer: The value was 5 ×10^4.

Question: What about the “Molecular weight (×10^4), irradiation time 300 h” value ([3]; additive 1 mg/ml) of the same compound?
Answer: Its value is 2 ×10^4.

Question: What about the “Percent Conjugation (%) of MTX, irradiation time 0 h” value ([3]; additive 1 mg/ml) of the same compound?
Answer: Its value is 2.1%.

Question: What about the “Percent Conjugation (%) of MTX, irradiation time 25 h” value ([3]; additive 1 mg/ml) of the same compound?
Answer: Its value is 2.2%.

Question: What about the “Percent Conjugation (%) of MTX, irradiation time 50 h” value ([3]; additive 1 mg/ml) of the same compound?
Answer: Its value is 2.2%.

Question: What about the “Percent Conjugation (%) of MTX, irradiation time 100 h” value ([3]; additive 1 mg/ml) of the same compound?
Answer: Its value is 1.4%.

Question: What about the “Percent Conjugation (%) of MTX, irradiation time 150 h” value ([3]; additive 1 mg/ml) of the same compound?
Answer: The value was 1.0%.

Question: What about the “Percent Conjugation (%) of MTX, irradiation time 300 h” value ([3]; additive 1 mg/ml) of the same compound?
Answer: Its value is 0.4%.

Question: And the “Molecular weight (×10^4), irradiation time 0 h” value ([3]; additive 10 mg/ml)?
Answer: Its value is 181 ×10^4.

Question: What about the “Molecular weight (×10^4), irradiation time 25 h” value ([3]; additive 10 mg/ml) of the same compound?
Answer: Its value is 166 ×10^4.

Question: What about the “Molecular weight (×10^4), irradiation time 50 h” value ([3]; additive 10 mg/ml) of the same compound?
Answer: Its value is 169 ×10^4.

Question: What about the “Molecular weight (×10^4), irradiation time 100 h” value ([3]; additive 10 mg/ml) of the same compound?
Answer: The value was 163 ×10^4.

Question: What about the “Molecular weight (×10^4), irradiation time 150 h” value ([3]; additive 10 mg/ml) of the same compound?
Answer: Its value is 154 ×10^4.

Question: And the “Molecular weight (×10^4), irradiation time 300 h” value ([3]; additive 10 mg/ml)?
Answer: The value was 5 ×10^4.

Question: And the “Percent Conjugation (%) of MTX, irradiation time 0 h” value ([3]; additive 10 mg/ml)?
Answer: The value was 2.1%.

Question: What about the “Percent Conjugation (%) of MTX, irradiation time 25 h” value ([3]; additive 10 mg/ml) of the same compound?
Answer: The value was 2.2%.

Question: And the “Percent Conjugation (%) of MTX, irradiation time 50 h” value ([3]; additive 10 mg/ml)?
Answer: The value was 2.3%.

Question: And the “Percent Conjugation (%) of MTX, irradiation time 100 h” value ([3]; additive 10 mg/ml)?
Answer: Its value is 2.0%.

Question: And the “Percent Conjugation (%) of MTX, irradiation time 150 h” value ([3]; additive 10 mg/ml)?
Answer: Its value is 2.2%.

Question: And the “Percent Conjugation (%) of MTX, irradiation time 300 h” value ([3]; additive 10 mg/ml)?
Answer: The value was 1.4%.

Question: What about the “Molecular weight (×10^4), irradiation time 0 h” value ([4]; additive 1 mg/mL) of the same compound?
Answer: Its value is 163 ×10^4.

Question: What about the “Molecular weight (×10^4), irradiation time 150 h” value ([4]; additive 1 mg/mL) of the same compound?
Answer: Its value is 123 ×10^4.

Question: What about the “Molecular weight (×10^4), irradiation time 300 h” value ([4]; additive 1 mg/mL) of the same compound?
Answer: Its value is 44 ×10^4.

Question: And the “Percent Conjugation (%), irradiation time 0 h” value ([4]; additive 1 mg/mL)?
Answer: Its value is 2.1%.

Question: What about the “Percent Conjugation (%), irradiation time 150 h” value ([4]; additive 1 mg/mL) of the same compound?
Answer: Its value is 2.2%.

Question: What about the “Percent Conjugation (%), irradiation time 300 h” value ([4]; additive 1 mg/mL) of the same compound?
Answer: The value was 2.2%.

Question: And the “Molecular weight (×10^4), irradiation time 0 h” value ([4]; additive 10 mg/mL)?
Answer: The value was 181 ×10^4.

Question: What about the “Molecular weight (×10^4), irradiation time 150 h” value ([4]; additive 10 mg/mL) of the same compound?
Answer: Its value is 170 ×10^4.

Question: And the “Molecular weight (×10^4), irradiation time 300 h” value ([4]; additive 10 mg/mL)?
Answer: Its value is 157 ×10^4.

Question: What about the “Percent Conjugation (%), irradiation time 0 h” value ([4]; additive 10 mg/mL) of the same compound?
Answer: The value was 2.1%.

Question: And the “Percent Conjugation (%), irradiation time 150 h” value ([4]; additive 10 mg/mL)?
Answer: The value was 2.1%.

Question: And the “Percent Conjugation (%), irradiation time 300 h” value ([4]; additive 10 mg/mL)?
Answer: The value was 2.2%.
